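Cultured in 96-well plates, cells were exposed to test compound for 48 hours across five concentrations. The concentration for 50% growth inhibition is given as GI50.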 Active and inactive are the calls of the source. Cut-off read from the data, not from the text of the source: active = GI50 up to about 1.1 µM and inactive = higher.
Key:
Experiment in all cases: growth of human tumour cells (NCI), 48 h
[1] = test system: DLD-1
[2] = test system: DMS-114
[3] = test system: HOP-18
[4] = test system: KM-20L2
[5] = test system: M19-MEL
[6] = test system: RXF 631
[7] = test system: SNB-78
[8] = test system: XF498
[9] = test system: T47D

Compound	GI50 [1]	GI50 [2]	GI50 [3]	GI50 [4]	GI50 [5]	GI50 [6]	GI50 [7]	GI50 [8]	GI50 [9]
COC(=O)CC1CC2(C(=O)OC)c3[nH]c4ccccc4c3CCN2C1=O (stereo not drawn)	> 100 µM (inactive)	> 100 µM (inactive)	> 100 µM (inactive)	> 100 µM (inactive)	> 100 µM (inactive)	17.5 µM (inactive)	> 100 µM (inactive)	> 100 µM (inactive)	–
O=C1OC(=O)c2c1nc1ccccc1c2-c1ccccc1	> 100 µM (inactive)	> 100 µM (inactive)	> 100 µM (inactive)	> 100 µM (inactive)	> 100 µM (inactive)	> 100 µM (inactive)	> 100 µM (inactive)	–	–
O=C(O)/C=N\N=c1[nH]c2ccccc2[nH]1	–	–	–	–	–	–	–	–	> 100 µM (inactive)
CC(=O)Nc1ccc(C2=N/C(=C\c3ccc(Cl)cc3)C(=O)O2)cc1	31.9 µM (inactive)	–	> 100 µM (inactive)	84.7 µM (inactive)	25.5 µM (inactive)	–	> 100 µM (inactive)	22 µM (inactive)	–
CCOC(=O)c1cc(C(=O)O)c(=O)n2c1[nH]c1ccccc12	99.8 µM (inactive)	> 100 µM (inactive)	42.1 µM (inactive)	> 100 µM (inactive)	> 100 µM (inactive)	> 100 µM (inactive)	> 100 µM (inactive)	> 100 µM (inactive)	–
O=C1/C(=C/c2ccc(O)cc2)CCC1CNc1ccc(Cl)cc1 (stereo not drawn)	0.912 µM (active)	1.31 µM (inactive)	6.08 µM (inactive)	0.579 µM (active)	1.79 µM (inactive)	8.89 µM (inactive)	12.5 µM (inactive)	2.7 µM (inactive)	–
O=C(O)C1=C(O)C(C(=O)O)C23CCCCCCCCCCC12C(C(=O)O)C(O)=C3C(=O)O (stereo not drawn)	> 100 µM (inactive)	> 100 µM (inactive)	> 100 µM (inactive)	–	> 100 µM (inactive)	–	–	> 100 µM (inactive)	–
C#CCN(N=O)C(=O)NCCCCC(NC(C)=O)C(=O)NCc1ccccc1 (stereo not drawn)	> 100 µM (inactive)	> 100 µM (inactive)	> 100 µM (inactive)	> 100 µM (inactive)	> 100 µM (inactive)	–	> 100 µM (inactive)	2.68 µM (inactive)	–
CC1(S)CC2C(CC1Sc1ccccc1)C2(C)C (stereo not drawn)	> 100 µM (inactive)	> 100 µM (inactive)	> 100 µM (inactive)	–	> 100 µM (inactive)	–	> 100 µM (inactive)	> 100 µM (inactive)	–
C/C(=N\NC(=S)N1CCN(c2ccccn2)CC1)c1nccs1	–	0.01 µM (active)	2.92 µM (inactive)	< 0.0294 µM (active)	0.574 µM (active)	1.05 µM (active)	6.76 µM (inactive)	13 µM (inactive)	0.0391 µM (active)
CS(=O)(=O)OC1CCC2(C#N)CCC1C2=O (stereo not drawn)	> 100 µM (inactive)	–	> 100 µM (inactive)	54.5 µM (inactive)	> 100 µM (inactive)	> 100 µM (inactive)	> 100 µM (inactive)	> 100 µM (inactive)	–
N#CC(NNC(=O)c1ccccc1O)c1c(O)ccc2ccccc12 (stereo not drawn)	2.06 µM (inactive)	1.87 µM (inactive)	2.04 µM (inactive)	17.9 µM (inactive)	1.78 µM (inactive)	–	19.8 µM (inactive)	–	2.96 µM (inactive)
Cc1cccc(NC(=O)C(=O)C(C2OC(=O)c3ccccc32)[N+](=O)[O-])c1C (stereo not drawn)	6.43 µM (inactive)	2.86 µM (inactive)	10.5 µM (inactive)	18.4 µM (inactive)	1.87 µM (inactive)	5.98 µM (inactive)	17.5 µM (inactive)	6.81 µM (inactive)	–
CC(C)c1cccc(C(C)C)c1NC(=O)C(=O)C(C(=O)c1ccc2ccccc2c1)C1OC(=O)c2ccccc21 (stereo not drawn)	> 100 µM (inactive)	> 100 µM (inactive)	–	–	26.7 µM (inactive)	–	> 100 µM (inactive)	–	–
COC(=O)CC1NC(=O)C1C1(C)OCCO1 (stereo not drawn)	> 100 µM (inactive)	> 100 µM (inactive)	–	> 100 µM (inactive)	> 100 µM (inactive)	–	–	> 100 µM (inactive)	–
Cc1ccc(/C=C/C(=O)C(C)C)cc1	51.9 µM (inactive)	42.2 µM (inactive)	–	14.2 µM (inactive)	64 µM (inactive)	–	64.7 µM (inactive)	–	–
COC(=O)c1cccc2c3ccccc3c3ccccc3c12	65.9 µM (inactive)	29.4 µM (inactive)	26.9 µM (inactive)	41.8 µM (inactive)	51.2 µM (inactive)	–	–	–	–
CC(=O)Nc1ccc(/C=c2\sc3nnc(/C=C/c4ccccc4)n3c2=O)cc1	> 50 µM (inactive)	> 50 µM (inactive)	17.1 µM (inactive)	> 50 µM (inactive)	> 50 µM (inactive)	> 50 µM (inactive)	> 50 µM (inactive)	> 50 µM (inactive)	–
